Experimental data as given in ChEMBL document CHEMBL3817837, “Targeting epigenetic reader and eraser: Rational design, synthesis and in vitro evaluation of dimethylisoxazoles derivatives as BRD4/HDAC dual inhibitors” (Bioorg Med Chem Lett, 2016).

How the values were obtained:
[1] = target: Histone deacetylase 1 (Homo sapiens, UniProt Q13547); assay: Inhibition of recombinant HDAC1 (unknown origin) using of Fluor-de-Lys substrate incubated for 10 mins by fluorimetric assay
[2] = target: Chromatin remodeling regulator CECR2 (Homo sapiens) (UniProt Q9BXF3); assay: Binding affinity to human CECR2 expressed in Escherichia coli BL21(DE3)-R3-pRARE2 assessed as change in melting temperature at 25 uM by SYPRO orange based protein stability shift assay
Chain of Chromatin remodeling regulator CECR2 (Homo sapiens) (Q9BXF3 whole entry, looked up): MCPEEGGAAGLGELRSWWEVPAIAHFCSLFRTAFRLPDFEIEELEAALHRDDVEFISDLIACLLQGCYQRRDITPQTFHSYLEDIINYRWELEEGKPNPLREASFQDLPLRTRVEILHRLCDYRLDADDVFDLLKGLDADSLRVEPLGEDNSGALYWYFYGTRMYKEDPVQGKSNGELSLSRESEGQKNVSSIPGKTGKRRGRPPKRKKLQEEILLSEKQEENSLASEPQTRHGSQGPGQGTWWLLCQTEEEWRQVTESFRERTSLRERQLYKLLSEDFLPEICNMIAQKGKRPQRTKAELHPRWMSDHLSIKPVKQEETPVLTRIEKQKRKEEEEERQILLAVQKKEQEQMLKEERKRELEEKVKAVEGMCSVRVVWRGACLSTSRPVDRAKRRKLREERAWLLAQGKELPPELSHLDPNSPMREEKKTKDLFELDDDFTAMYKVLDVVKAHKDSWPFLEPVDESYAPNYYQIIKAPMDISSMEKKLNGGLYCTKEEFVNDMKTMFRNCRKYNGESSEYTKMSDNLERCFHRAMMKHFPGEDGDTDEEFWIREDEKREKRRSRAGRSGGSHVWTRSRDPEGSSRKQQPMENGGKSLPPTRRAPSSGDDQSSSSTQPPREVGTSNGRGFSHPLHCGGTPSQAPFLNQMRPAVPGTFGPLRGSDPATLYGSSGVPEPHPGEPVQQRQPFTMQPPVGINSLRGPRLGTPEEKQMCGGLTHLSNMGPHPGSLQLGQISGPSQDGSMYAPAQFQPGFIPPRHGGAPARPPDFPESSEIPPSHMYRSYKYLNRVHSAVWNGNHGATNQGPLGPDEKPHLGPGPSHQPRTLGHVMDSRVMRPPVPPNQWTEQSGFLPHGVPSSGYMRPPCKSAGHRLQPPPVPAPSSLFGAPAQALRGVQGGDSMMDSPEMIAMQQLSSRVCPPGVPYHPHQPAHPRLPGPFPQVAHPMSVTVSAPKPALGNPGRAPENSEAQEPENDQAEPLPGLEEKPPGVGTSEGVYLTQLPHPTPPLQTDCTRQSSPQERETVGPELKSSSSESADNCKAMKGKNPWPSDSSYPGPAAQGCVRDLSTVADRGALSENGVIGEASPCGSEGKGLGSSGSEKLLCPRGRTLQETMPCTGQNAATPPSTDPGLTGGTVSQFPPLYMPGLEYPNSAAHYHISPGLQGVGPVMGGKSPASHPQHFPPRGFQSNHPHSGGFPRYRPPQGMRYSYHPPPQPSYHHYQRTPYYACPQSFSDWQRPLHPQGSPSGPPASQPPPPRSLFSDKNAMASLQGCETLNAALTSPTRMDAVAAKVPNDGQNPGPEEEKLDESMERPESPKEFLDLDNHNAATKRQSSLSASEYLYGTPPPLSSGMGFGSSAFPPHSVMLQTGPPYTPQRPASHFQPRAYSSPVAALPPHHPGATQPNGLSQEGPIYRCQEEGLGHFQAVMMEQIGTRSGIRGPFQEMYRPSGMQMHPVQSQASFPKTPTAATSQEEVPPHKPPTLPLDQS

[3] = target: T1, Bromodomain-containing protein 4 (Homo sapiens, UniProt O60885); assay: Inhibition of human BRD4 expressed in Escherichia coli BL21(DE3)-R3-pRARE2 by bromodomain alphascreen peptide displacement assay
[4] = target: Histone acetyltransferase KAT2B (Homo sapiens) (UniProt Q92831); assay: Binding affinity to human PCAF expressed in Escherichia coli BL21(DE3)-R3-pRARE2 assessed as change in melting temperature at 25 uM by SYPRO orange based protein stability shift assay
Chain of Histone acetyltransferase KAT2B (Homo sapiens) (Q92831 whole entry, looked up): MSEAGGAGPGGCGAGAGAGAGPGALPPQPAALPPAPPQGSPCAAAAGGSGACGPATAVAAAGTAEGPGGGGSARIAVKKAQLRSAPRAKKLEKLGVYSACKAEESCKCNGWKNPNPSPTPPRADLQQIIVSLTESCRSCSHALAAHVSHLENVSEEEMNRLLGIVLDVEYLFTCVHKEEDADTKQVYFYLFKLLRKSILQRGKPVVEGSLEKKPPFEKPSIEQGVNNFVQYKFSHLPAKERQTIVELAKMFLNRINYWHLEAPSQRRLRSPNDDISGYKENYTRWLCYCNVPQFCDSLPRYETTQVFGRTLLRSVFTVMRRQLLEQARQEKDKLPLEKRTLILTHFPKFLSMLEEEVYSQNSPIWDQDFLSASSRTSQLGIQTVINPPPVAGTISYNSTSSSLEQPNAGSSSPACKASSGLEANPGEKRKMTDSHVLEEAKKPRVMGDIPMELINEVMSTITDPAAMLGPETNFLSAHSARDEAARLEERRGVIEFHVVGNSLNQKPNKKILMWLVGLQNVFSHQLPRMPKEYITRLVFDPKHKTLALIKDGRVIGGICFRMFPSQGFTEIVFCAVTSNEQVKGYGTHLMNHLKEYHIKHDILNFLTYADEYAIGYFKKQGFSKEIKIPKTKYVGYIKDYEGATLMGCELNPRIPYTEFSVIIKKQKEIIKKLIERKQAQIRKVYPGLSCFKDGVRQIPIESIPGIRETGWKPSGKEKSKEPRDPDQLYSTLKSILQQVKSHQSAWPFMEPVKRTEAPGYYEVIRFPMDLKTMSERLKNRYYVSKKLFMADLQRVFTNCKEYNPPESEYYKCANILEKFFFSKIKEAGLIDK

[5] = target: Transcription initiation factor TFIID subunit 1 (Homo sapiens) (UniProt P21675); assay: Binding affinity to human TAF1 expressed in Escherichia coli BL21(DE3)-R3-pRARE2 assessed as change in melting temperature at 25 uM by SYPRO orange based protein stability shift assay
Chain of Transcription initiation factor TFIID subunit 1 (Homo sapiens) (P21675 whole entry): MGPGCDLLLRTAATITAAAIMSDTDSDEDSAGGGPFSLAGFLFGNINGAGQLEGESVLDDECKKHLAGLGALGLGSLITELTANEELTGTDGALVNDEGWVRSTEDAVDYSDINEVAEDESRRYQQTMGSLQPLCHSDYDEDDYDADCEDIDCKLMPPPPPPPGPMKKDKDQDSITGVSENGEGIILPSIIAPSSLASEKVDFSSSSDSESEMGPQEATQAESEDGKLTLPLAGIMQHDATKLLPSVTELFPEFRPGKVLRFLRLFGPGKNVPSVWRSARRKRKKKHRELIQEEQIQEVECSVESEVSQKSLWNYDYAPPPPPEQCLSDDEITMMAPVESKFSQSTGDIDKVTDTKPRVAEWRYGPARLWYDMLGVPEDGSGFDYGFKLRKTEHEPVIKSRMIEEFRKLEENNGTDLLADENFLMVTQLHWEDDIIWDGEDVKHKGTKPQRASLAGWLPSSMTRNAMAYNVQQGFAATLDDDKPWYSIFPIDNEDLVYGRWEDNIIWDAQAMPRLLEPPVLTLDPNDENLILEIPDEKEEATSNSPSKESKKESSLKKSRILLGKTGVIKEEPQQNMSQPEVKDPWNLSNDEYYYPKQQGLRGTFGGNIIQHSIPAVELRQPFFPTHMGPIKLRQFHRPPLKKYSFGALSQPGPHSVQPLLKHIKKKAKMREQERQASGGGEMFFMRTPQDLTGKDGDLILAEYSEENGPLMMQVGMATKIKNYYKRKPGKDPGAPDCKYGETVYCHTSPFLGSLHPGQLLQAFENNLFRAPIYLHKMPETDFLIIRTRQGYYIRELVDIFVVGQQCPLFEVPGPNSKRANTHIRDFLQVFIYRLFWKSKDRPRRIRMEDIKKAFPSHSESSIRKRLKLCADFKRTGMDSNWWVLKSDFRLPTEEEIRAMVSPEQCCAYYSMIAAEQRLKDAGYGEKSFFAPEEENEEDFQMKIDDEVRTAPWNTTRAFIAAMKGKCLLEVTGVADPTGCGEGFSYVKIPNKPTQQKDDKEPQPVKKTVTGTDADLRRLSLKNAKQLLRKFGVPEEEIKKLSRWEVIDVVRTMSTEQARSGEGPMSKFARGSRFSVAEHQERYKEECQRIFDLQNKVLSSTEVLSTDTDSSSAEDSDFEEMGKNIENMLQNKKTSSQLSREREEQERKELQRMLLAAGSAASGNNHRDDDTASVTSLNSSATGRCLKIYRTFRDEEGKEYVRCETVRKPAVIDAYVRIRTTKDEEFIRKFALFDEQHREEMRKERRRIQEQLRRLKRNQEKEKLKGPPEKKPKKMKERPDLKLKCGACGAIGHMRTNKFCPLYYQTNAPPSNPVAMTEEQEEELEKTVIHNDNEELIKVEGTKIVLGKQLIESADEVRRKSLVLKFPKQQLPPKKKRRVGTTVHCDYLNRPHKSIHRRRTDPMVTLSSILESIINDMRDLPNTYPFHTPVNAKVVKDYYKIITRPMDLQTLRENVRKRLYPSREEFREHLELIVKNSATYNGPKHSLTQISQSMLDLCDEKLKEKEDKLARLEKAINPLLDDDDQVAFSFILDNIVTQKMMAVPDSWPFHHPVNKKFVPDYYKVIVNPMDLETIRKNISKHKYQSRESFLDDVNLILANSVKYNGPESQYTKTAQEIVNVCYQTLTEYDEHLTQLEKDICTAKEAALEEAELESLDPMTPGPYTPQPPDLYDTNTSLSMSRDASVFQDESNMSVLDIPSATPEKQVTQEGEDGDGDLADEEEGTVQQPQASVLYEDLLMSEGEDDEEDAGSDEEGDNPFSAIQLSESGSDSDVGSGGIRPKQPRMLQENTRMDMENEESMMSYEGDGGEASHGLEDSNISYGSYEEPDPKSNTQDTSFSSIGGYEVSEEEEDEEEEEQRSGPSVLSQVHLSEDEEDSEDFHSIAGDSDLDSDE

[6] = target: T1, Bromodomain-containing protein 4
Description: Binding affinity to human BRD4 expressed in Escherichia coli BL21(DE3)-R3-pRARE2 assessed as change in melting temperature at 25 uM by SYPRO orange based protein stability shift assay

[7] = target: CREB-binding protein (Homo sapiens) (UniProt Q92793); assay: Binding affinity to human CREBBP expressed in Escherichia coli BL21(DE3)-R3-pRARE2 assessed as change in melting temperature at 25 uM by SYPRO orange based protein stability shift assay
[8] = target: T2, Bromodomain-containing protein 9 (Homo sapiens) (UniProt Q9H8M2); assay: Binding affinity to human BRD9 expressed in Escherichia coli BL21(DE3)-R3-pRARE2 assessed as change in melting temperature at 25 uM by SYPRO orange based protein stability shift assay
T2 sequence (whole entry): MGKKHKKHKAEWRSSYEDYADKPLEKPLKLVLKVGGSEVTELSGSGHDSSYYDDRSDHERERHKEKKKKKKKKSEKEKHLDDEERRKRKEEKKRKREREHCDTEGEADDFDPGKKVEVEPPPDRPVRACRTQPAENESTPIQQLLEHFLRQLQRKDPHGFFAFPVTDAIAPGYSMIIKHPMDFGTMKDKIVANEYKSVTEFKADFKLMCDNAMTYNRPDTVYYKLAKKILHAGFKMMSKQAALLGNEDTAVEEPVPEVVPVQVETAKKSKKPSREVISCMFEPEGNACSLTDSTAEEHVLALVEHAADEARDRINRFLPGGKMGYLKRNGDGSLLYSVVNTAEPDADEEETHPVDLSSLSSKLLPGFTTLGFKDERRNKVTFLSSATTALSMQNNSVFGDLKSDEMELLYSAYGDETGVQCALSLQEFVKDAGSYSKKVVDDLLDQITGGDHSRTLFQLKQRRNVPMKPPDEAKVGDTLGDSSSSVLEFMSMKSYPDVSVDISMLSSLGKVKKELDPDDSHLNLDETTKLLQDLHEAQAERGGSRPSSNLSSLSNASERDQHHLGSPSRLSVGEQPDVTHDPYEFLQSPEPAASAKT

[9] = system: K562; assay: Antiproliferative activity against human K562 cells assessed as reduction in cell viability incubated for 72 hrs by Alamar blue assay; format: functional, cell-based; conditions: K562, 72 h
[10] = system: MV4-11; assay: Antiproliferative activity against human MV4-11 cells assessed as reduction in cell viability incubated for 72 hrs by Alamar blue assay; format: functional, cell-based; conditions: MV4-11, 72 h

Chain of Histone deacetylase 1 (Q13547 whole entry): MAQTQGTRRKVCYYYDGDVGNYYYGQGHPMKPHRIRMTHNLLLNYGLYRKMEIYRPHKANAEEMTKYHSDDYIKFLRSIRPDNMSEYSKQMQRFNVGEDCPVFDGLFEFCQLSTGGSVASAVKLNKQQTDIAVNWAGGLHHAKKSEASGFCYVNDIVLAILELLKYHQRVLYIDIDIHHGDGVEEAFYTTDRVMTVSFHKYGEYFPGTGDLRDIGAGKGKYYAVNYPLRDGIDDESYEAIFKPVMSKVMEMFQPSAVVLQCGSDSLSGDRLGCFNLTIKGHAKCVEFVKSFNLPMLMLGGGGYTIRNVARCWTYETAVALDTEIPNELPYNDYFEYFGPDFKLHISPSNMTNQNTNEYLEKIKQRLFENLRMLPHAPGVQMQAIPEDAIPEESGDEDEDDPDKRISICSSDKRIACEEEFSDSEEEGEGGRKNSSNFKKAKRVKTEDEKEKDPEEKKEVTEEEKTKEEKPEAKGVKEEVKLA

Row | SMILES | IC50 [1] | ΔTm [2] | IC50 [3] | ΔTm [4] | ΔTm [5] | ΔTm [6] | ΔTm [7] | ΔTm [8] | IC50 [9] | IC50 [10]
1 | Cc1noc(C)c1-c1cc(OCCCCCC(=O)NO)cc(C(=O)c2ccccc2)c1 | 1490 nM | 1.18 °C | 1380 nM | 0.28 °C | 1.69 °C | 7.54 °C | 1.69 °C | 1.56 °C |  | 
2 | Cc1noc(C)c1-c1cc(NC(=O)CCCCCCC(=O)NO)cc(C(=O)c2ccccc2)c1 | 150 nM | 1.96 °C | 670 nM | 1.35 °C | 2.22 °C | 7.49 °C | 3.24 °C | 2.97 °C | 1860 nM | 910 nM
3 | Cc1noc(C)c1-c1cccc(NC(=O)CCCCCC(=O)NO)c1 | 360 nM | 0.64 °C | 3730 nM | 0.05 °C | 1.08 °C | 3.58 °C | 0.73 °C | -0.13 °C |  | 
4 | Cc1noc(C)c1-c1cc(OCCCCCCC(=O)NO)cc(C(=O)c2ccccc2)c1 | 1430 nM |  | 1050 nM | 1.04 °C | 2.22 °C | 7.41 °C | 2.13 °C | 1.72 °C |  | 
5 | Cc1noc(C)c1-c1cc(OCCCCCCCC(=O)NO)cc(C(=O)c2ccccc2)c1 | 1740 nM | 2.06 °C | 2990 nM | -0.31 °C | 1.77 °C | 4.91 °C | 0.65 °C | 1.22 °C |  | 
6 | Cc1noc(C)c1-c1cc(NC(=O)CCCCC(=O)NO)cc(C(=O)c2ccccc2)c1 | 760 nM | 1.65 °C | 780 nM | 0.31 °C | 1.95 °C | 6.21 °C | 2.05 °C | 2.79 °C |  | 
7 | Cc1noc(C)c1-c1cc(NC(=O)CCCCCC(=O)NO)cc(C(=O)c2ccccc2)c1 | 270 nM | 1.52 °C | 850 nM | 0.92 °C | 1.76 °C | 6.37 °C | 2.32 °C | 2.26 °C | 2330 nM | 1040 nM
8 | O=C(CCCCCCC(=O)Nc1ccccc1)NO [VORINOSTAT] |  |  |  |  |  |  |  |  | 170 nM | 
9 | Cc1noc(C)c1-c1cc(OCCCCCCC(=O)NO)cc(C(O)c2ccccc2)c1 (configuration not stated) | 970 nM | 1.32 °C | 770 nM | 0.35 °C | 1.72 °C | 7.53 °C | 4.03 °C | 1.55 °C |  | 
10 | Cc1noc(C)c1-c1cc(OCCCCC(=O)NO)cc(C(=O)c2ccccc2)c1 | 5450 nM |  | 1490 nM | -7.9 °C | 1.14 °C | 5.89 °C | -0.01 °C | -0.75 °C |  | 
11 | Cc1sc2c(c1C)C(c1ccc(Cl)cc1)=N[C@@H](CC(=O)OC(C)(C)C)c1nnc(C)n1-2 (racemic) |  |  |  |  |  |  |  |  | 640 nM | 240 nM
